Assay results published in patent US20220054447A1, “CANNABIS COMPOSITIONS AND METHODS” (priority 2018, published 2022).
Marks after values point to notes of the source that are not given here.

Key:
[1] = 9-month stability of dried cannabis drug stored in a vault (not under nitrogen); assay type: physicochemical; parameters: Analyte content, Nov. 17, 2016: unit not given beside the values; details: for Analyte content, Aug. 10, 2017 / Analyte content, Nov. 17, 2016: dried cannabis drug stored in a vault, not under nitrogen; for Analyte content, Aug. 10, 2017: 9 months; for Analyte content, Nov. 17, 2016: Day 0; for % Change from Day 0: 9-month storage, <0.05 assumed to be 0.05 for calculation
Text: A schematic depicting the production of exemplary cannabinoic acids and subsequent transformation to the related neutral form by conditions such as oxidation, heat and time is shown in FIG. 3.

[2] = cited from earlier work; for log P (octanol/water partition coefficient): United Nations Office on Drugs and Crime, 2009
[3] = Dose uniformity of pellets; assay type: physicochemical
Text: The dose uniformity studies show improvement subsequent to optimization of the blending process. […] After optimizing the process, the dose uniformity for clinical batches was 5.59% and 5.13% for THC and THCA, respectively.

[4] = Phase 1 clinical batch, before optimization of blending
[5] = clinical batches after optimizing the process

| Compound | Analyte content, Aug. 10, 2017 [1] | Analyte content, Nov. 17, 2016 [1] | % Change from Day 0 [1] [%] | log P (octanol/water partition coefficient) [2] | Stability ([2]; pure THC, Mechoulam 1970, NIH 1996) | Dose uniformity, % variability [3, 4] [%] | Dose uniformity, % variability [3, 5] [%] | Solubility in ethanol [2] | Solubility in water [2] |
| --- | --- | --- | --- | --- | --- | --- | --- | --- | --- |
| CCCCCc1cc(O)c(C/C=C(\C)CCC=C(C)C)c(O)c1C(=O)O [CBGA, cannabigerolic acid] | 0.26 | 0.37 |  |  |  |  |  |  |  |
| CCCCCc1cc(O)c(C/C=C(\C)CCC=C(C)C)c(O)c1 [CBG, cannabigerol] | 0.12 | <0.05* | 140 |  |  |  |  |  |  |
| CCCCCc1cc(O)c2c(c1)OC(C)(C)[C@@H]1CCC(C)=C[C@@H]21 [THC, tetrahydrocannabinol, reference compound] | 1.75 | 0.21 | 733 | 6.99 | unstable in air, light, and at high temperatures | 12.82 | 5.59 |  |  |
| C=C(C)[C@@H]1CCC(C)=C[C@H]1c1c(O)cc(CCCCC)cc1O [CBD, cannabidiol, reference compound] | 0.68 | <0.05* | 1260 | 5.79 |  |  |  | soluble in ethanol | not soluble in water |
| C=C(C)[C@@H]1CCC(C)=C[C@H]1c1c(O)cc(CCCCC)c(C(=O)O)c1O [CBDA, cannabidiolic acid] | 2.03 | 3.07 | 33.9 |  |  |  |  |  |  |
| CCCCCc1cc2c(c(O)c1C(=O)O)[C@@H]1C=C(C)CC[C@H]1C(C)(C)O2 [THCA, tetrahydrocannabinolic acid] | 6.02 | 9.68 |  |  |  | 15.07 | 5.13 |  |  |
